Measured values reported in patent publication US8378100B2, “Phosphonate derivatives as autotaxin inhibitors” (University of Virginia Patent Foundation, priority 2008, dated 2013).

Molecular target: recombinant human ATX (Homo sapiens, UniProt Q13822)
Test: Choline detection assay for ATX
Assay type: biochemical
Details: for ATX activity (%) 1 μM: 1 μM test compound; for ATX activity (%) 1 μM / ATX activity (%) 10 Mm / ATX activity (%) 100 μM / ATX activity (%) 10 μM: activity without test compound = 100%; for ATX activity (%) 10 Mm: 10 μM test compound as printed; for ATX activity (%) 100 μM: 100 μM test compound; for ATX inhibition (in words): compounds synthesized from D-tyrosine; for ATX activity (%) 10 μM: 10 μM test compound
Protocol: The phosphonate derivatives were tested in choline detection assay for ATX inhibition. The ATX activity assay was conducted in 0.1 ml, buffer: (in mM: Tris-HCl 100, pH9, NaCl 150, MgCl2 5, CoSO4 0.03, 0.05% Triton X-100), 1 mM 18:1 LPC, using recombinant human ATX with or without test compounds; incubation was for 16 hours at 37° C. The released choline was detected as follows: Samples were mixed with 0.15 ml of 50 mM TrisHCl containing 2.7 mM TOOS(N-ethyl-N-2-hydroxy-3-sulfopropyl)-m-toluidine, 2.7 mM 4-AAP (4-aminoantipyrine), 47.7 U/ml horseradish peroxidase, 18 U/ml choline oxidase, and 5 mM MgCl2. After 30 min incubation at 37° C., light absorbance (550 nm) was determined, and the amount of choline release was calculated from a standard curve.
The ATX activity was measured in the presence of the test compounds under different concentrations (100 μM, 10 μM and 1 μM). The ATX activity without TEST compounds was used as the standard (100% activity). Some β-hydroxy phosphonate derivatives inhibited ATX activity at only the highest concentration tested. […] These two compounds were synthesized from protected L-tyrosine and they are diastereomers. The less polar isomer, f17, (also known as VPC8a202) was able to inhibit 73% of ATX activity at 1 μM.

[1] = table of g1-g15 (β-keto phosphonates)

Row | Compound | ATX activity (%) 1 μM (Table 1 (f1-f34), 1 µM) | ATX activity (%) 10 Mm (Table 1 (f1-f34)) | ATX activity (%) 100 μM (Table 1 (f1-f34), 100 µM) | other results
1 | CCCCCCCCCCCCCCCC(=O)N[C@H](Cc1ccc(OCc2ccccc2)cc1)C(O)CP(=O)(O)O (single isomer, unassigned) [f5] | 83% | 82% | 83% | –
2 | CCCCCCCCCCCCCCCC(=O)N[C@H](Cc1ccc(OCc2ccccc2)cc1)C(O)CP(=O)(O)O (single isomer, unassigned) [f6] | 80% | 81% | 83% | –
3 | CCCCCCCCCCCCCCCC(=O)N[C@@H](Cc1ccc(OCc2ccccc2)cc1)C(O)CP(=O)(O)O (single isomer, unassigned) [f7] | 97% | 77% | 68% | –
4 | CCCCCCCCCCCCCCCC(=O)N[C@@H](Cc1ccc(OCc2ccccc2)cc1)C(O)CP(=O)(O)O (single isomer, unassigned) [f8] | 76% | 83% | 78% | –
5 | CCCCCCCCCCCCCCCC(=O)N[C@H](Cc1ccc(OCc2ccccc2)cc1)C(O)CP(=O)(O)O (single isomer, unassigned) [f9] | 103% | 76% | 60% | –
6 | CCCCCCCCCCCCCCCC(=O)N[C@H](Cc1ccc(OCC2CCCCC2)cc1)C(O)CP(=O)(O)O (single isomer, unassigned) [f13] | – | 80% | – | ATX activity (%) 1 μM (Table 1 (f1-f34)): 84%; ATX activity (%) 100 μM (Table 1 (f1-f34)): 67%
7 | CCCCCCCCCCCCCCCC(=O)N[C@@H](Cc1ccc(OCC2CCCCC2)cc1)C(O)CP(=O)(O)O (single isomer, unassigned) [f14] | – | 80% | – | ATX activity (%) 1 μM (Table 1 (f1-f34)): 80%; ATX activity (%) 100 μM (Table 1 (f1-f34)): 80%
8 | CCCCCCCCCCCCCCCC(=O)N[C@H](Cc1ccc(OCc2ncc(C)c(OC)c2C)cc1)C(O)CP(=O)(O)O (single isomer, unassigned) [f15] | 108% | 95% | 63% | ATX inhibition (in words): did potently inhibit ATX
9 | CCCCCCCCCCCCCCCC(=O)N[C@H](Cc1ccc(OCc2ncc(C)c(OC)c2C)cc1)C(O)CP(=O)(O)O (single isomer, unassigned) [f16] | 69% | 64% | 47% | ATX inhibition (in words): did potently inhibit ATX
10 | CCCCCCCCCCCCCCCC(=O)N[C@@H](Cc1ccc(OCc2ncc(C)c(OC)c2C)cc1)C(O)CP(=O)(O)O (single isomer, unassigned) [f18] | – | 21% | – | ATX activity (%) 1 μM (Table 1 (f1-f34)): 63%; ATX activity (%) 100 μM (Table 1 (f1-f34)): 8%; inhibition of ATX (in words) (at 1 μM): significant inhibition
11 | CCCCCCCCCCCCCCCC(=O)N[C@H](Cc1ccc(OC)cc1)C(O)CP(=O)(O)O (single isomer, unassigned) [f19] | 100% | 78% | 57% | –
12 | CCCCCCCCCCCCCCCC(=O)N[C@H](Cc1ccc(OC)cc1)C(O)CP(=O)(O)O (single isomer, unassigned) [f20] | 95% | 84% | 82% | –
13 | CCCCCCCCCCCCCCCC(=O)N[C@@H](Cc1ccc(OC)cc1)C(O)CP(=O)(O)O (single isomer, unassigned) [f21] | 77% | 56% | 36% | –
14 | CCCCCCCCCCCCCCCC(=O)N[C@@H](Cc1ccc(OC)cc1)C(O)CP(=O)(O)O (single isomer, unassigned) [f22] | 84% | 80% | 69% | –
15 | CCCCCCCCCCCCCCCC(=O)N[C@H](Cc1ccc(OCCC)cc1)C(O)CP(=O)(O)O (single isomer, unassigned) [f23] | 80% | 79% | 72% | –
16 | CCCCCCCCCCCCCCCC(=O)N[C@H](Cc1ccc(OCCC)cc1)C(O)CP(=O)(O)O (single isomer, unassigned) [f24] | 108% | 108% | 90% | –
17 | CCCCCCCCCCCCCCCC(=O)N[C@@H](Cc1ccc(OCCC)cc1)C(O)CP(=O)(O)O (single isomer, unassigned) [f25] | 110% | 97% | 77% | –
18 | CCCCCCCCCCCCCCCC(=O)N[C@@H](Cc1ccc(OCCC)cc1)C(O)CP(=O)(O)O (single isomer, unassigned) [f26] | 100% | 100% | 83% | –

Row | Compound | ATX activity (%) 1 μM (Table 1 (f1-f34), 1 µM) | ATX activity (%) 10 Mm (Table 1 (f1-f34)) | ATX activity (%) 100 μM (Table 1 (f1-f34), 100 µM) | other results
19 | CCCCCCCCCCCCCCCC(=O)N[C@H](Cc1ccc(OCCCCC)cc1)C(O)CP(=O)(O)O (single isomer, unassigned) [f27] | 81% | 85% | 80% | –
20 | CCCCCCCCCCCCCCCC(=O)N[C@H](Cc1ccc(OCCCCC)cc1)C(O)CP(=O)(O)O (single isomer, unassigned) [f28] | 86% | 82% | 70% | –
21 | CCCCCCCCCCCCCCCC(=O)N[C@@H](Cc1ccc(OCCCCC)cc1)C(O)CP(=O)(O)O (single isomer, unassigned) [f29] | 98% | 83% | 67% | –
22 | CCCCCCCCCCCCCCCC(=O)N[C@@H](Cc1ccc(OCCCCC)cc1)C(O)CP(=O)(O)O (single isomer, unassigned) [f30] | 94% | 90% | 70% | –
23 | CCCCCCCCCC(=O)N[C@H](Cc1ccc(OCc2ncc(C)c(OC)c2C)cc1)C(O)CP(=O)(O)O (single isomer, unassigned) [f35] | – | – | – | ATX activity (%) 10 μM (Table 2 (f35-f44)): 86%; ATX activity (%) 100 μM (Table 2 (f35-f44)): 30%
24 | CCCCCCCCCCCCCC(=O)N[C@H](Cc1ccc(OCc2ncc(C)c(OC)c2C)cc1)C(O)CP(=O)(O)O (single isomer, unassigned) [f37] | – | – | – | ATX activity (%) 10 μM (Table 2 (f35-f44)): 99%; ATX activity (%) 100 μM (Table 2 (f35-f44), 100 µM): 67%
25 | CCCCCCCCCCCCCC(=O)N[C@H](Cc1ccc(OCc2ncc(C)c(OC)c2C)cc1)C(O)CP(=O)(O)O (single isomer, unassigned) [f38] | – | – | – | ATX activity (%) 100 μM (Table 2 (f35-f44), 100 µM): 35%
26 | CCCCCCCCCCCCCCCCCC(=O)N[C@@H](Cc1ccc(OCc2ncc(C)c(OC)c2C)cc1)C(O)CP(=O)(O)O (single isomer, unassigned) [f39] | – | – | – | ATX activity (%) 1 μM (Table 2 (f35-f44)): 101%; ATX activity (%) 10 μM (Table 2 (f35-f44), 10 µM): 91%; ATX activity (%) 100 μM (Table 2 (f35-f44), 100 µM): 81%
27 | CCCCCCCCCCCCCCCCCC(=O)N[C@@H](Cc1ccc(OCc2ncc(C)c(OC)c2C)cc1)C(O)CP(=O)(O)O (single isomer, unassigned) [f40] | – | – | – | ATX activity (%) 10 μM (Table 2 (f35-f44), 10 µM): 90%; ATX activity (%) 100 μM (Table 2 (f35-f44), 100 µM): 62%
28 | CCCCCCCC/C=C\CCCCCCCC(=O)N[C@@H](Cc1ccc(OCc2ncc(C)c(OC)c2C)cc1)C(O)CP(=O)(O)O (single isomer, unassigned) [f41] | – | – | – | ATX activity (%) 10 μM (Table 2 (f35-f44), 10 µM): 45%; ATX activity (%) 100 μM (Table 2 (f35-f44), 100 µM): 15%
29 | CCCCCCCC/C=C\CCCCCCCC(=O)N[C@@H](Cc1ccc(OCc2ncc(C)c(OC)c2C)cc1)C(O)CP(=O)(O)O (single isomer, unassigned) [f42] | – | – | – | ATX activity (%) 1 μM (Table 2 (f35-f44)): 77%; ATX activity (%) 10 μM (Table 2 (f35-f44), 10 µM): 68%; ATX activity (%) 100 μM (Table 2 (f35-f44), 100 µM): 58%
30 | CCCCCCCCCCCCCCCCCCCC(=O)NC(Cc1ccc(OCc2ncc(C)c(OC)c2C)cc1)C(O)CP(=O)(O)O (single isomer, unassigned) [f43] | – | – | – | ATX activity (%) 1 μM (Table 2 (f35-f44)): 64%; ATX activity (%) 10 μM (Table 2 (f35-f44)): 45%; ATX activity (%) 100 μM (Table 2 (f35-f44)): 10%
31 | CCCCCCCCCCCCCCCC(=O)N[C@H](Cc1ccc(OCc2ccccc2)cc1)C(=O)CP(=O)(O)O [g3] | – | – | – | ATX activity (%) 10 μM [1]: 82%; ATX activity (%) 100 μM [1]: 76%
32 | CCCCCCCCCCCCCCCC(=O)N[C@@H](Cc1ccc(OCc2ccccc2)cc1)C(=O)CP(=O)(O)O [g4] | – | – | – | ATX activity (%) 10 μM [1]: 71%; ATX activity (%) 100 μM [1]: 61%
33 | CCCCCCCCCCCCCCCC(=O)N[C@@H](Cc1ccc(OCc2ncc(C)c(OC)c2C)cc1)C(=O)CP(=O)(O)O [g7] | – | – | – | ATX activity (%) 1 μM [1]: 71%; ATX activity (%) 10 μM [1]: 74%; ATX activity (%) 100 μM [1]: 26%
34 | CCCCCCCCCCCCCCCC(=O)N[C@H](Cc1ccc(OC)cc1)C(=O)CP(=O)(O)O [g8] | – | – | – | ATX activity (%) 1 μM [1]: 84%; ATX activity (%) 10 μM [1]: 71%; ATX activity (%) 100 μM [1]: 32%
35 | CCCCCCCCCCCCCCCC(=O)N[C@@H](Cc1ccc(OC)cc1)C(=O)CP(=O)(O)O [g9] | – | – | – | ATX activity (%) 1 μM [1]: 96%; ATX activity (%) 10 μM [1]: 68%; ATX activity (%) 100 μM [1]: 45%
